US20220257578A1, “COMPOSITION AND METHOD FOR TREATING CANDIDA AURIS INFECTION” (Appili Therapeutics Inc., priority 2019, published 2022)
Converted amounts (≈) assume the structure as drawn. Read-outs that look alike come from different tables or passages of the source.

Legend:
C. auris (DI 17-46) = assay: Neutropenic mice with invasive candidiasis secondary to C. auris (survival arm and fungal burden arm); type: in vivo; settings: for percent survival: day 21, control 0%; for kidney fungal burden (mean): control 7.09; for kidney fungal burden: control 8.04
Protocol: FIG. 1 depicts survival curves in mice inoculated intravenously with C. auris and treated with vehicle control, fluconazole 20 mg/kg PO QD, or caspofungin 10 mg/kg IP QD (A) or T-2307 at doses of 0.75 mg/kg, 1.5 mg/kg, or 3 mg/kg SC QD (B). Treatment started one day post-inoculation and continued for 7 days. Mice were then followed off therapy until day 21 post-inoculation (14 days after therapy stopped). Black square—vehicle control; white circle—fluconazole 20 mg/kg; black circle—caspofungin 10 mg/kg; inverted gray triangle T-2307 0.75 mg/kg; gray rectangle—T-2307 1.5 mg/kg; gray triangle—T-2307 3 mg/kg. N=10 mice per group.
(§1) FIG. 2 depicts graphs showing kidney (A) and brain (B) fungal burden (CFU/g) in mice with invasive candidiasis secondary to C. auris in the fungal burden arm. Colony-forming units were measured on day 8 post-inoculation after 7 days of therapy. N=10 mice in the vehicle control and treatment groups; N=5 mice in the 24-hour control group.
as §1, with “FIG. 3” for “FIG. 2”, “the survival” for “the fungal burden”, “group. Black circles represent mice that succumbed to infection prior to day 21; gray circles represent mice that survived to the survival endpoint.” for “group.”
Male Institute of Cancer Research (ICR) mice were rendered neutropenic with a single dose of 5-fluorouracil (5 mg/mouse) administered 24 hours prior to inoculation, and a clinical isolate of C. auris (DI 17-46) was used to infect mice via the lateral tail vein as previously described (Wiederhold et al. 2019. Antimicrob Agents Chemother. 63:e02233-18, the entire contents of which is herein incorporated by reference). Treatment with vehicle control, T-2307 (0.75, 1.5, or 3 mg/kg subcutaneously (SC) once daily), fluconazole (20 mg/kg per orally (PO) once daily), or caspofungin (10 mg/kg intraperitoneally (IP) once daily) began 1-day post-inoculation and continued for 7 days. In the fungal burden arm, mice were humanely euthanized on day 8 post-inoculation, and kidneys and brains were collected, weighed, and homogenized for analysis of colony-forming units (CFU/g). In the survival arm, mice were followed off therapy for 14 days, until day 21 post-inoculation. Fungal burden was also assessed in the survival arm on day 21 or on the day the mice succumbed to infection. Differences in survival were assessed by Kaplan-Meier analysis with the log-rank test. ANOVA with Tukey's post-test for multiple comparisons were used to assess for differences in fungal burden and geometric mean (GM) MIC values.

C. auris = assay: In vitro susceptibility testing according to CLSI M27-A3 (MIC); type: cell-based, Candida auris; settings: for MIC50 / MIC90 / MIC: Candidozyma auris; for MIC50: lowest concentration that inhibited 50% of the isolates tested; for MIC90: lowest concentration that inhibited 90% of the isolates tested
Protocol: In vitro susceptibility testing was performed according to the CLSI M27-A3 standard, the contents of which are herein incorporated by reference, against 10 isolates available from the U.S. Food and Drug Administration Center for Disease Control Antibiotic Resistance (FDA CDC AR) Isolate Bank and 13 clinical isolates that were received for testing by the Fungus Testing Laboratory at University of Texas Health Science Center at San Antonio (UTHSCSA).
In vitro activity of T-2307, fluconazole, and caspofungin against C. auris. […] MIC50 and MIC90 are lowest concentrations that inhibited 50% and 90%, respectively, of the isolates tested. GM MIC is geometric mean MIC.

[1] = 50% inhibition endpoint, read-out: GM MIC (geometric mean MIC)
[2] = infecting clinical isolate of C. auris (DI 17-46), read-out: MIC against the infecting isolate

| SMILES | percent survival (C. auris (DI 17-46); caspofungin 10 mg/kg IP once daily for 7 days) [%] | brain fungal burden (C. auris (DI 17-46); fungal burden arm, day 8 post-inoculation, caspofungin 10 mg/kg IP, control 5.88) [log10 CFU/g] | kidney fungal burden (mean) (C. auris (DI 17-46); fungal burden arm, day 8 post-inoculation, caspofungin 10 mg/kg IP) [log10 CFU/g] | brain fungal burden (C. auris (DI 17-46); survival arm, day 21 or day mice succumbed, caspofungin 10 mg/kg IP, control 6.31) [log10 CFU/g] | kidney fungal burden (C. auris (DI 17-46); survival arm, day 21 or day mice succumbed, caspofungin 10 mg/kg IP) [log10 CFU/g] | MIC50 (C. auris; 50% inhibition endpoint) [µg/mL] | MIC90 (C. auris; 50% inhibition endpoint) [µg/mL] | MIC (C. auris; [1]) [µg/mL] | MIC (C. auris; [2]) [µg/mL] | improvement in survival vs control (C. auris (DI 17-46); fluconazole 20 mg/kg PO once daily) | percent survival (C. auris (DI 17-46); T-2307 3 mg/kg SC once daily for 7 days) [%] | kidney fungal burden (mean) (C. auris (DI 17-46); fungal burden arm, day 8 post-inoculation, T-2307 3 mg/kg SC) [log10 CFU/g] | nature of activity (kidney fungal burden vs 24-hour group before start of therapy) (C. auris (DI 17-46); fungal burden arm, T-2307 3 mg/kg SC) | improvement in survival vs control (C. auris (DI 17-46); lower doses of T-2307 (0.75, 1.5 mg/kg SC once daily)) | brain fungal burden (C. auris (DI 17-46); survival arm, day 21 or day mice succumbed, T-2307 3 mg/kg SC, control 6.31) [log10 CFU/g] | kidney fungal burden (C. auris (DI 17-46); survival arm, day 21 or day mice succumbed, T-2307 3 mg/kg SC) [log10 CFU/g] | MIC Range (C. auris; 50% inhibition endpoint, 23 C. auris isolates, 24 hours at 35° C.) [µg/mL] | MIC50 (C. auris; 100% inhibition endpoint) [µg/mL] | MIC90 (C. auris; 100% inhibition endpoint) [µg/mL] | MIC (C. auris; 100% inhibition endpoint, read-out: GM MIC (geometric mean MIC)) [µg/mL] |
| --- | --- | --- | --- | --- | --- | --- | --- | --- | --- | --- | --- | --- | --- | --- | --- | --- | --- | --- | --- | --- |
| CC[C@H](C)C[C@H](C)CCCCCCCCC(=O)N[C@H]1C[C@@H](O)[C@@H](NCCN)NC(=O)[C@@H]2[C@@H](O)CCN2C(=O)[C@H]([C@H](O)CCN)NC(=O)[C@H]([C@H](O)[C@@H](O)c2ccc(O)cc2)NC(=O)[C@@H]2C[C@@H](O)CN2C(=O)[C@H]([C@@H](C)O)NC1=O [Caspofungin, caspofungin] | 100 | 4.45 | 3.21 | 2.51 | 3.11 | 0.25 (≈ 0.229 µM) | 0.5 (≈ 0.457 µM) | 0.24 (≈ 0.22 µM) | 0.25 (≈ 0.229 µM) | – | – | – | – | – | – | – | – | – | – | – |
| OC(Cn1cncn1)(Cn1cncn1)c1ccc(F)cc1F [Fluconazole, fluconazole] | – | – | – | – | – | 4 (≈ 13.1 µM) | > 64 | 14.6 (≈ 47.7 µM) | > 64 | did not improve survival | – | – | – | – | – | – | – | – | – | – |
| N=C(N)c1ccc(OCCCC2CCN(CCCOc3ccc(C(=N)N)cc3)CC2)cc1 [T-2307, 4-{3-[4-(3-{4-[amino(imino)methyl]phenoxy}propyl)-1-piperidinyl]propoxy}benzamidine] | – | – | – | – | – | 0.015 (≈ 0.0343 µM) | 0.015 (≈ 0.0343 µM) | 0.011 (≈ 0.0251 µM) | < 0.008 | – | 70 | 5.06 | static in nature | did not improve survival | 4.16 | 6.28 | ≤0.008 to 0.015 | > 4 | > 4 | 2.19 (≈ 5 µM) |
